Read-outs that look alike come from different tables or passages of the source.
Columns and labels:
[1] = molecular target: T1, OscobB (Oryza sativa, UniProt A2XBC4); assay: dot blot deacetylation assay; format: biochemical
T1 construct: gene OsI_09569; cobB-like portion 269-501 of OsI_09569, untagged, modified pET28a (insert 711 bp), E. coli BL21(DE3), ion exchange; 25-28 kDa monomer
T1 sequence (A2XBC4 269-501): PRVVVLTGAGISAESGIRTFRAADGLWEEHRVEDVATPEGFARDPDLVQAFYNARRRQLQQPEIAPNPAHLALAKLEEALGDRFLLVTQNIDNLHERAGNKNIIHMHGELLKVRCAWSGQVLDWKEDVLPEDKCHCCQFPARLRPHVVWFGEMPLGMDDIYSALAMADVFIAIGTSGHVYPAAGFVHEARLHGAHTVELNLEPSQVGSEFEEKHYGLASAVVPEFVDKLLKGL

[2] = molecular target: T1, OscobB; assay: intrinsic tryptophan fluorescence quenching; format: binding
[3] = molecular target: T1, OscobB; assay: dot blot deacetylation assay; format: biochemical; remark: listed apart in the source

Nc1ncnc2c1ncn2[C@@H]1O[C@H](COP(=O)(O)OP(=O)(O)OC[C@H]2OC(O)[C@H](O)[C@@H]2O)[C@@H](O)[C@H]1O (stereo partly shown) [ADP-ribose]
IC50 ([1]; NAD+, analog of product O-acetyl-ADP-ribose): 410 µM

NC(=O)c1ccc[n+]([C@@H]2O[C@H](COP(=O)(O)OP(=O)(O)OC[C@H]3O[C@@H](n4cnc5c(N)ncnc54)[C@H](O)[C@@H]3O)[C@@H](O)[C@H]2O)c1 [NAD^+]
Kd [2]: 30 ± 2 µM

NC(=O)c1cccnc1 [NAM]
IC50 [1]: 253 ± 45 µM

Oc1ccc(/C=C/c2cc(O)cc(O)c2)cc1 [resveratrol]
EC50 [3]: 51 µM
